Test results from patent US5679684A, “Hydroxyalkylammonium-pyrimidines and nucleoside derivatives, useful as inhibitors of inflammatory cytokines” (Macronex, Inc., priority 1995, dated 1997).

Assays:
LDH = assay type: cell-based; set-up: key to EFFECT: NE: No effect; NT: Not tested; INHIB: Inhibition; STIM: Stimulation; IC20: 20% Inhibitory Concentration; EC50: 50% Effective Concentration; TC: Tolerated Concentration
IL-8 = experiment: Monocyte release of IL-8; assay type: cell-based, human; set-up: key to EFFECT: NE: No effect; NT: Not tested; INHIB: Inhibition; STIM: Stimulation; IC20: 20% Inhibitory Concentration; EC50: 50% Effective Concentration; TC: Tolerated Concentration; settings: IL8
monocytes = experiment: Inhibition of monocyte chemotaxis; assay type: cell-based, human; set-up: key to EFFECT: NE: No effect; NT: Not tested; INHIB: Inhibition; STIM: Stimulation; IC20: 20% Inhibitory Concentration; EC50: 50% Effective Concentration; TC: Tolerated Concentration; settings: chemoattractant FMLP
Experimental: Inhibition of Monocyte Chemotaxis:
Monocytes are prepared as previously described, and resuspended at 5×10^6 cells/ml in HBSS, 0.1% BSA (HBSS-BSA). Fluorophore labeling of the cells is carried out by adding calcein-AM to the above cells at a final concentration of 2 μM. Following a 30 minute incubation at 37° C. in humidified 5% CO2, the labeled monocytes are washed twice and incubated in a range of dilutions of the test materials for 60 minutes at 37° C. in humidified 5% CO2. The pre-treated, calcein-AM loaded cells are then added in triplicate to the wells of the top compartment of a NeuroProbe (Cabin, John, M.D.) 96-well chemotaxis chamber (2×10^5 cells/well) and permitted to migrate through a 10 μm thick bonded polycarbonate membrane (5 μm porosity; NeuroProbe Inc; Cabin, John, M.D.) towards the wells of the lower compartment containing the chemoattractant (FMLP) at 5×10^-9 M. After a 90 minute incubation at 37° C. in a humidified chamber, the wells of the upper chambers are aspirated, the monocyte-associated membrane removed, non-migrating cells wiped off and the filters permitted to air dry to 15 minutes. The number of cells migrating through the membranes are quantified by measuring the fluorescent intensity of the migrating cells in a fluorescent microplate reader (CytoFluor 2300, Millipore Corp., Bedford, Mass.)

MTS = assay type: cell-based; set-up: key to EFFECT: NE: No effect; NT: Not tested; INHIB: Inhibition; STIM: Stimulation; IC20: 20% Inhibitory Concentration; EC50: 50% Effective Concentration; TC: Tolerated Concentration
[1] = test system: human peripheral blood mononuclear cells (PBMC); experiment: PBMC proliferation to mitogens (PHA); assay type: cell-based; set-up: key: NE: No effect; NT: Not tested; INHIB: Inhibition; STIM: Stimulation; IC20: 20% Inhibitory Concentration; EC50: 50% Effective Concentration; TC: Tolerated Concentration
Experimental: (§1) Human Peripheral Blood Mononuclear Cell (PBMC) Isolation:
(§2) Venous blood is obtained from healthy volunteers and mixed with an equal volume of sterile isotonic saline/10 mM HEPES and placed into 50 ml conical polypropylene tubes in 30 ml aliquots. Each aliquot of diluted blood is underlaid with 20-25 ml of sterile Lymphocyte Separation Medium (LSM; Organon-Technika, Durham, N.C.). The tubes are centrifuged at 400 g for 40 minutes at room temperature. The mononuclear cells at the interface are removed and washed twice in sterile isotonic saline/10 mM HEPES followed by a wash in Hank's Balanced Salt Solution (HBSS) or RPMI without serum, depending on their intended use. Cell concentrations for each donor are determined by counting in a haematology and analyser (Serono-Baker).
PBMC Proliferation to Mitogens (PHA):
PBMC are adjusted to 4×10^6 /ml in complete medium. To each well of a 96 well flat bottom tissue culture plate (Falcon 3072) is added 50 μl of cell suspension. Test materials (diluted in complete medium to 2× the desired final concentration) are added in 100 μl volumes to each well. […] The contents of the wells are harvested onto glass fibre filters using a multiple automated sample harvester (Tomtec), and the incorporated […] determined by liquid scintillation spectrophotometry and represented an cpm (counts per minute) incorporated per well.

PAF = experiment: Monocyte release of PAF; assay type: cell-based, human; set-up: key: NE: No effect; NT: Not tested; INHIB: Inhibition; STIM: Stimulation; IC20: 20% Inhibitory Concentration; EC50: 50% Effective Concentration; TC: Tolerated Concentration; settings: zymosan A stimulated
Experimental: (§3) Monocyte Release of PGE2, LTB4, and PAF:
(§4) Monocytes isolated as described above, were washed and resuspended in RPM1 containing 5 mg/ml HSA at 2×10^6 cells/ml and added to wells of a 48-well plates. The cells were allowed to adhere for 2 hours then washed in HBSS-BSA-HEPES buffer. Test materials were added at four concentrations (175 μl) for 60 minutes; then the monocytes were stimulated by addition of […] zymosan A (175 μl of 2× desired final concentration added). Supernatant medium was collected from the wells after 90 minutes incubation and stored at -20° C. until assayed. Supernatants were assayed for PGE2, LTB4 or PAF using specific scintillation proximity assays (SPA).

IL-6 = experiment: Monocyte release of IL-6; assay type: cell-based, human; set-up: key to EFFECT: NE: No effect; NT: Not tested; INHIB: Inhibition; STIM: Stimulation; IC20: 20% Inhibitory Concentration; EC50: 50% Effective Concentration; TC: Tolerated Concentration; settings: IL6
LTB4 = experiment: Monocyte release of LTB4; assay type: cell-based, human; set-up: key: NE: No effect; NT: Not tested; INHIB: Inhibition; STIM: Stimulation; IC20: 20% Inhibitory Concentration; EC50: 50% Effective Concentration; TC: Tolerated Concentration; settings: zymosan A stimulated
Experimental: as §3, §4

TNF-α [2] = experiment: Monocyte release of TNF-α; assay type: cell-based, human; set-up: key to EFFECT: NE: No effect; NT: Not tested; INHIB: Inhibition; STIM: Stimulation; IC20: 20% Inhibitory Concentration; EC50: 50% Effective Concentration; TC: Tolerated Concentration; settings: TNFα
IL-1β = experiment: Monocyte release of IL-1β; assay type: cell-based, human; set-up: key to EFFECT: NE: No effect; NT: Not tested; INHIB: Inhibition; STIM: Stimulation; IC20: 20% Inhibitory Concentration; EC50: 50% Effective Concentration; TC: Tolerated Concentration; settings: IL1β
[3] = test system: human peripheral blood mononuclear cells (PBMC); experiment: Two-way mixed lymphocyte reaction (MLR); assay type: cell-based; set-up: key: NE: No effect; NT: Not tested; INHIB: Inhibition; STIM: Stimulation; IC20: 20% Inhibitory Concentration; EC50: 50% Effective Concentration; TC: Tolerated Concentration
Experimental: as §1, §2
Two-Way Mixed Lymphocyte Reaction (MLR):
PBMC are prepared as described for the mitogen assays, but resuspended to 2×10^6 cells/ml in complete medium. Fifty μl of cell suspension from two different individuals is then added to each well of a 96-well flat bottom tissue culture plate. An additional 100 μl of complete medium, dexamethasone or test compounds are then added to each well, the plates are incubated for 6 days at 37° C., and then pulsed with ^3 H-thymidine and harvested as previously described.

PGE2 = experiment: Monocyte release of PGE2; assay type: cell-based, human; set-up: key: NE: No effect; NT: Not tested; INHIB: Inhibition; STIM: Stimulation; IC20: 20% Inhibitory Concentration; EC50: 50% Effective Concentration; TC: Tolerated Concentration; settings: zymosan A stimulated
Experimental: as §3, §4

GM-CSF = experiment: Monocyte release of GM-CSF; assay type: cell-based, human; set-up: key to EFFECT: NE: No effect; NT: Not tested; INHIB: Inhibition; STIM: Stimulation; IC20: 20% Inhibitory Concentration; EC50: 50% Effective Concentration; TC: Tolerated Concentration
superoxide anion = experiment: Monocyte superoxide anion (O2) release; assay type: cell-based, human; set-up: key to EFFECT: NE: No effect; NT: Not tested; INHIB: Inhibition; STIM: Stimulation; IC20: 20% Inhibitory Concentration; EC50: 50% Effective Concentration; TC: Tolerated Concentration
Experimental: Monocyte Superoxide Anion (O2) Release:
Monocytes are prepared as described above and resuspended to 5×10^6 /ml in HBSS containing 10 Mm HEPES, 2 g/l glucose, 0.1% BSA, Ph 7.2. To each well of a 96-well flat bottom, tissue culture plate is added 100 μl of cell suspension and 100 μl of buffer or test materials. Samples are run in quadruplicate. The plate is incubated for 60 min. at 37° C. followed by the addition of 50 μl of buffer containing cytochrome C (5 mg/ml; type VI, horse heart, Sigma) and bovine liver catalase (1500 U/ml; Sigma) in the presence of zymosan A ([…]; 750 μg/ml; Sigma). The plate is incubated an additional 120 minutes at 37° C. during which the absorbance at 550 nm is monitored using a microplate reader incorporating dedicated software for kinetic analysis (Molecular Devices; Menlo Park, Calif.).

[4] = Endotoxin testing (kinetic chromogenic procedure); set-up: key: NE: No effect; NT: Not tested; INHIB: Inhibition; STIM: Stimulation; IC20: 20% Inhibitory Concentration; EC50: 50% Effective Concentration; TC: Tolerated Concentration
Experimental: All batches of media and reagents are tested to ensure they are free of endotoxins before they are used. This laboratory uses a kinetic chromogenic procedure (Kinetic QCL; Whittaker Bioproducts) for the determination of endotoxin, performed using the Thermomax Plate reader from Molecular Devices. The plate reader incorporates dedicated software for the computer analysis of all data. Samples are tested following the manufacturer's instructions, at 3 different concentrations, in triplicate. Reference Standard Endotoxin (United States Pharmacopeia) obtained at a concentration of 10,000 endotoxin units/ml, is used to generate a standard curve to determine the actual concentration of endotoxin in the samples (sensitivity =/>0.005 endotoxin units/ml).

Tissue Factor = experiment: Monocyte procoagulant activity (Tissue Factor); assay type: cell-based, human; set-up: key to EFFECT: NE: No effect; NT: Not tested; INHIB: Inhibition; STIM: Stimulation; IC20: 20% Inhibitory Concentration; EC50: 50% Effective Concentration; TC: Tolerated Concentration
Experimental: Monocyte Procoagulant Activity (Tissue Factor):
The adhered monocytes remaining on the 48-well tissue culture plates after removal of the supernatants above, are used to measure levels of Tissue Factor production. The cells are solubilized overnight at 4° C. in 10% Triton-X100 in PBS, diluted to 1% Triton-X100 with PBS then assayed by ELISA for Tissue Factor.

TNF-α [5] = settings: associated with HIV-1 inhibition; cited from earlier work
HIV-1 = settings: advanced HIV-1 infection and AIDS; cited from earlier work
latent HIV-1 = settings: monocytoid (U1) cell line; cited from earlier work

CCCCCCCCCCCCCCCC(=O)OCC[N+](C)(C)CCOCn1cc(C)c(=O)[nH]c1=O [Example 6, N,N-Dimethyl-N-2-(hexadecanoyloxy)ethyl-N-[N^1-(5-methyl-2,4-dioxopyrimidinyl)methoxyethyl]ammonium iodide]
EFFECT (LDH): TC
MNTC (LDH; ldh assay, effect TC, read-out: Tolerated Concentration (EC50)): 100 µM
EC50 (IL-8; Homo sapiens, Monocyte): 2.9 µM
EFFECT (IL-8): INHIB
EC50 (monocytes; Homo sapiens, Monocyte): 47 µM
EFFECT (monocytes): INHIB
EFFECT (MTS): TC
MNTC (MTS; mts assay, effect TC, read-out: Tolerated Concentration (EC50)): 100 µM
EFFECT [1]: NE
EFFECT (PAF): NE
EC50 (IL-6; Homo sapiens, Monocyte): 5.7 µM
EFFECT (IL-6): INHIB
EFFECT (LTB4): NE
EC50 (TNF-α [2]; Homo sapiens, Monocyte): 5.5 µM
EFFECT (TNF-α [2]): INHIB
EC50 (IL-1β; Homo sapiens, Monocyte): 7.5 µM
EFFECT (IL-1β): INHIB
EFFECT [3]: NE
EFFECT (PGE2): NE
EFFECT (GM-CSF): INHIB
EC50 (GM-CSF; Homo sapiens, Monocyte): 12.6 µM
EFFECT (superoxide anion): INHIB
EC50 (superoxide anion; Homo sapiens, Monocyte): 34 µM
EFFECT [4]: NE
EFFECT (Tissue Factor): INHIB
EC50 (Tissue Factor; Homo sapiens, Monocyte): 4.3 µM

O=C1CCC(N2C(=O)c3ccccc3C2=O)C(=O)N1 (centres unmarked) [Thalidomide]
agonist-induced TNF-α protein and mRNA production (TNF-α [5]): reduction
inhibition of activation of virus in PBMC, patients (HIV-1): 16 out of 17
activation of latent HIV-1 (latent HIV-1): suppress the activation of latent HIV-1
